Assay results taken from BindingDB's records for patent US20250170122 (Intellikine, 2025).

Columns and labels:
Test in all cases: Inhibition Assays of p110α/p85α, p110β/p85α, p110δ/p85α, and p110γ
[1] = biological target: T1, Phosphatidylinositol 4,5-bisphosphate 3-kinase catalytic subunit gamma isoform (Homo sapiens, UniProt P48736)
T1 construct: gene PIK3CG
Method: (§1) Briefly, the assay is a time resolved FRET assay that indirectly measures PIP3 product formed by the activity of a PI3-K. The kinase reaction is performed in a microtitre plate (e.g., a 384 well microtitre plate). The total reaction volume is approximately 20 ul per well. In the first step, each well receives 2 ul of test compound in 20% dimethylsulphoxide resulting in a 2% DMSO final concentration. Next, approximately 14.5 ul of a kinase/PIP2 mixture (diluted in 1× reaction buffer) is added per well for a final concentration of 0.25-0.3 ug/ml kinase and 10 uM PIP2. […] To start the reaction, 3.5 ul of ATP (diluted in 1× reaction buffer) is added per well for a final concentration of 10 uM ATP. The plate is sealed and incubated for 1 hour at room temperature. The reaction is stopped by adding 5 ul of Stop Solution per well and then 5 ul of Detection Mix is added per well. The plate is sealed, incubated for 1 hour at room temperature, and then read on an appropriate plate reader. Data is analyzed and IC50s are generated using GraphPad Prism 5.

[2] = biological target: T2, Phosphatidylinositol 4,5-bisphosphate 3-kinase catalytic subunit delta isoform (Homo sapiens, UniProt O00329)
T2 sequence (O00329 whole entry): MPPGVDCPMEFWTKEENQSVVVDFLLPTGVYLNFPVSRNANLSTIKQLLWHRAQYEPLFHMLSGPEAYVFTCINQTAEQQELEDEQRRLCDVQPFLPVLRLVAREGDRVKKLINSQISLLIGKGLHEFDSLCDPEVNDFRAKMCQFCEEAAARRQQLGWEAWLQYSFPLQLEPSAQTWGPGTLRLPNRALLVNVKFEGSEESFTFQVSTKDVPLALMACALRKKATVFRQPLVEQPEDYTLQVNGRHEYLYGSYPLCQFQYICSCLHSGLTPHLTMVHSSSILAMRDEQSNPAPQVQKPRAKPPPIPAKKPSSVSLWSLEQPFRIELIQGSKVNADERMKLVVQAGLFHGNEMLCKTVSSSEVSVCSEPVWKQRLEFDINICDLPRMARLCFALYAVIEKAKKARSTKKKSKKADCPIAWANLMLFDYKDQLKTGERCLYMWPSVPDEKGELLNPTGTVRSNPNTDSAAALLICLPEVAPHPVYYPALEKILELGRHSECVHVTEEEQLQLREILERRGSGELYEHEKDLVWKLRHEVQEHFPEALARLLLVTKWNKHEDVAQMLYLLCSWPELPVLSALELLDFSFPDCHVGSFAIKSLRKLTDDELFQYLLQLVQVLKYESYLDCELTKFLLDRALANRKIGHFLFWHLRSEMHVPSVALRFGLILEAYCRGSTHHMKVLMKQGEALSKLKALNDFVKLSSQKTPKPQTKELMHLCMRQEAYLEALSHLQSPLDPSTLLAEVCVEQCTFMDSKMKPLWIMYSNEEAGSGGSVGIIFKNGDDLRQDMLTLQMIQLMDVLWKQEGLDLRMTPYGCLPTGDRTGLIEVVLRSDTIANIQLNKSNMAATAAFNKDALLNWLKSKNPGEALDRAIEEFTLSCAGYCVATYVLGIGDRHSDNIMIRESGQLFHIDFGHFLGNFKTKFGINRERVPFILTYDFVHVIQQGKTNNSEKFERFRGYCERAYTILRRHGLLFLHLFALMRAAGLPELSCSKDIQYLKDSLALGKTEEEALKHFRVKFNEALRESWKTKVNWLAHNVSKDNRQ
Method: as §1

[3] = biological target: Phosphatidylinositol 4,5-bisphosphate 3-kinase catalytic subunit alpha isoform (Homo sapiens, UniProt P42336)
Phosphatidylinositol 4,5-bisphosphate 3-kinase catalytic subunit alpha isoform, sequence (P42336 whole entry, canonical isoform): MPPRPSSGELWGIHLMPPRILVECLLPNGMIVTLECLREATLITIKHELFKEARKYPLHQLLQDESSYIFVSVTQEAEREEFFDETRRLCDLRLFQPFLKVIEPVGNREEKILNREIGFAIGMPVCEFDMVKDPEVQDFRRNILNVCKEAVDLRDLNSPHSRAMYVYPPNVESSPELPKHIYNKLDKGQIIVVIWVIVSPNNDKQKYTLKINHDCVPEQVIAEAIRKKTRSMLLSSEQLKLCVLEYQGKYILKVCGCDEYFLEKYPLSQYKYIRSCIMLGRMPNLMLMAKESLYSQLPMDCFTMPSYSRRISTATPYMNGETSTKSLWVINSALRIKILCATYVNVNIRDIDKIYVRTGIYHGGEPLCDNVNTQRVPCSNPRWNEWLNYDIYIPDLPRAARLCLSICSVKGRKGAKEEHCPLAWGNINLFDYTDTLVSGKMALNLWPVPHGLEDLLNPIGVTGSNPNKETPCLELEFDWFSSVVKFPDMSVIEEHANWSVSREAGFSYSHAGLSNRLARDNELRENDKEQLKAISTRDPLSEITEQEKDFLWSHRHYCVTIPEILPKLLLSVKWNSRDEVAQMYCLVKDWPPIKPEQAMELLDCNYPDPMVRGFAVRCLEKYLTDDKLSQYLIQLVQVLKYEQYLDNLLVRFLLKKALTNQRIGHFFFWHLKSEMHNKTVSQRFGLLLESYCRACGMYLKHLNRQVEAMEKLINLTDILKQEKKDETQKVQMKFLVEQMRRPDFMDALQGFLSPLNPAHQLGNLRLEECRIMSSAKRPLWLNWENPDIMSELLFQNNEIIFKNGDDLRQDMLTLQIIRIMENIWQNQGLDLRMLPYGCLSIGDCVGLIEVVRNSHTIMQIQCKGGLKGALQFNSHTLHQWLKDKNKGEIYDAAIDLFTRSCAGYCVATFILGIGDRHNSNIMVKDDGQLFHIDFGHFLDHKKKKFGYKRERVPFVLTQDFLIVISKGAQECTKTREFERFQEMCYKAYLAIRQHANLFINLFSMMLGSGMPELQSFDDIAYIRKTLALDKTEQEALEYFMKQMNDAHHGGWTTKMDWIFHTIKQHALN
Method: as §1

[4] = biological target: Phosphatidylinositol 4,5-bisphosphate 3-kinase catalytic subunit beta isoform (Homo sapiens, UniProt P42338)
Phosphatidylinositol 4,5-bisphosphate 3-kinase catalytic subunit beta isoform, sequence (P42338 whole entry, canonical isoform): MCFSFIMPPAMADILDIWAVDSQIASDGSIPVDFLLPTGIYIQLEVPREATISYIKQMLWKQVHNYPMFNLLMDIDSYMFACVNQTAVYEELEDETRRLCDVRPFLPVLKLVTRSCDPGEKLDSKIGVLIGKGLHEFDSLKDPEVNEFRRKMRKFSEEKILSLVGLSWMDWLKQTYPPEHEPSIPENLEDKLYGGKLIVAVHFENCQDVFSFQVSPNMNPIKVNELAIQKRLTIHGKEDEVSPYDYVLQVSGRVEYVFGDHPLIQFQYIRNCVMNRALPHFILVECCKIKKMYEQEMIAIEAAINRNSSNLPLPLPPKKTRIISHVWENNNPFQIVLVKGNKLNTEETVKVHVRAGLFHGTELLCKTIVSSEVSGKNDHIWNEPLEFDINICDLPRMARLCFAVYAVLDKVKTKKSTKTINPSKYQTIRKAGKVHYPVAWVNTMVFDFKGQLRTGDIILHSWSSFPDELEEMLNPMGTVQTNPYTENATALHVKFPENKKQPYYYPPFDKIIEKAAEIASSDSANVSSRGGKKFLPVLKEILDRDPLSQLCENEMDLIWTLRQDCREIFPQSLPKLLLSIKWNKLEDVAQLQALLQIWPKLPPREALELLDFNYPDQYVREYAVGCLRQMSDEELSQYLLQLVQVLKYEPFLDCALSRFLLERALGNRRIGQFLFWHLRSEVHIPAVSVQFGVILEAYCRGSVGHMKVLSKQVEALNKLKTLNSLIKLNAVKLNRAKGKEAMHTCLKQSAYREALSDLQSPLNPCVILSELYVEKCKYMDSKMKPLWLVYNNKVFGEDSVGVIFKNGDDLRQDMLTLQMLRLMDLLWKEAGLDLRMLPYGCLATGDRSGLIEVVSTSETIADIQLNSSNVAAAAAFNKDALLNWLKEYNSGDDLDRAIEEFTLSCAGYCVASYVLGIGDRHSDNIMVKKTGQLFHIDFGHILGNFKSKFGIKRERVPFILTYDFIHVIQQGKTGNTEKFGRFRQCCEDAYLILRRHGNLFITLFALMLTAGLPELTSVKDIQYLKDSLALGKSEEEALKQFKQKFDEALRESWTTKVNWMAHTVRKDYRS
Method: as §1

T1 sequence (P48736 whole entry, looked up, canonical isoform): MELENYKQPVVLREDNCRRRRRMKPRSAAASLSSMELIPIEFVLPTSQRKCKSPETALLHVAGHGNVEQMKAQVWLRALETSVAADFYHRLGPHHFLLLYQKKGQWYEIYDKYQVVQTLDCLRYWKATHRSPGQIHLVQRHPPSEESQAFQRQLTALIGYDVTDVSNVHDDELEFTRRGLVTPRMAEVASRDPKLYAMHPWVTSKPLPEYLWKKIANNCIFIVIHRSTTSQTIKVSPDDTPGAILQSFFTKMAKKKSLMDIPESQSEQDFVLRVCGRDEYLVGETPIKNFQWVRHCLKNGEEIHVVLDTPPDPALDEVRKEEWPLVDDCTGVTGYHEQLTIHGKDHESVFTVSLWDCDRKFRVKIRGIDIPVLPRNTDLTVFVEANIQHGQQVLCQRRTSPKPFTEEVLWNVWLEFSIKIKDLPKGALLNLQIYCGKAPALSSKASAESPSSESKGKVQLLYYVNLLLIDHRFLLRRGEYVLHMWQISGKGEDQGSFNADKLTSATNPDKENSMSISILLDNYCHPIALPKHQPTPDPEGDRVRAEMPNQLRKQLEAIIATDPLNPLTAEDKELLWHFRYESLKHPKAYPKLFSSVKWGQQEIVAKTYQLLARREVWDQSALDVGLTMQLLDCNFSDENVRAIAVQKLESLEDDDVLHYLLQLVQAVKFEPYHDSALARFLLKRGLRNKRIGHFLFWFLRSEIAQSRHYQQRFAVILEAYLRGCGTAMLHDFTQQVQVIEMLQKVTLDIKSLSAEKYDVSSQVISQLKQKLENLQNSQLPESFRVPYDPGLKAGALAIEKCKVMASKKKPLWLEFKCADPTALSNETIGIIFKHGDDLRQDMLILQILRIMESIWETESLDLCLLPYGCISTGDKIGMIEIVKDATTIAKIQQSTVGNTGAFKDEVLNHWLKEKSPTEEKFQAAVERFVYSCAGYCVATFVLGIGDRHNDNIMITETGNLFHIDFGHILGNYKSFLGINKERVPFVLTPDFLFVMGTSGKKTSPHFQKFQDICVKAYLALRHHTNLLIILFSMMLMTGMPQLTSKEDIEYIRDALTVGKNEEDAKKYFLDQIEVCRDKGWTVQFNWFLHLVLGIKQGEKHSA

Cc1ccccc1-n1c(Cn2cnc3c(N)ncnc32)cc2cccc(C)c2c1=O [US20250170122, Compound 5]
IC50 [1]: > 10000 nM
IC50 [2]: < 10000 nM

Cc1cccc2cc(Cn3nc(-c4cccc(Cl)c4)c4c(N)ncnc43)n(-c3ccccc3F)c(=O)c12 [US20250170122, Compound 38]
IC50 [1]: < 10000 nM

Cc1cccc2cc(Cn3nc(-c4ccc(O)cc4)c4c(N)ncnc43)n(-c3ccccc3F)c(=O)c12 [US20250170122, Compound 46]
IC50 [3]: > 10000 nM
IC50 [1]: < 1000 nM
IC50 [4]: > 10000 nM
IC50 [2]: < 10000 nM

Cc1cccc2cc(Cn3nc(I)c4c(N)ncnc43)n(C3CCCC3)c(=O)c12 [US20250170122, Compound 57]
IC50 [3]: > 10000 nM
IC50 [1]: < 10000 nM
IC50 [4]: > 10000 nM
IC50 [2]: < 1000 nM

Cc1cccc2cc(Cn3nc(-c4ccc(Cl)c(O)c4)c4c(N)ncnc43)n(C3CCCC3)c(=O)c12 [US20250170122, Compound 71]
IC50 [3]: > 10000 nM
IC50 [1]: < 1000 nM
IC50 [4]: < 10000 nM
IC50 [2]: < 1000 nM

CC(C)n1c(Cn2nc(I)c3c(N)ncnc32)cc2ccccc2c1=O [US20250170122, Compound 129]
IC50 [2]: < 10000 nM

CC(=O)Nc1nc2ccc(-c3nn(Cc4cc5cccc(C)c5c(=O)n4-c4ccccc4)c(C)c3CN)cc2s1 [US20250170122, Compound 177]
IC50 [1]: < 100 nM
IC50 [2]: < 100 nM

Cc1cccc2cc(C(C)Nc3ncnc4[nH]cnc34)n(-c3ccccc3F)c(=O)c12 (stereo not drawn) [US20250170122, Compound 203]
IC50 [1]: < 100 nM

C[C@H](Nc1ncnc2[nH]cnc12)c1cc2cccc(Cl)c2c(=O)n1-c1cccc(F)c1 [US20250170122, Compound 328]
IC50 [1]: < 100 nM
IC50 [2]: < 100 nM

C[C@H](Nc1ncnc2[nH]cnc12)c1cc2cccc(Cl)c2c(=O)n1-c1ccc(F)cc1 [US20250170122, Compound 329]
IC50 [1]: < 100 nM
IC50 [4]: < 100 nM
IC50 [2]: < 100 nM

C[C@H](Nc1ncnc2[nH]cnc12)c1cc2cccc(F)c2c(=O)n1-c1ccccc1 [US20250170122, Compound 330]
IC50 [1]: < 100 nM
IC50 [2]: < 100 nM

C[C@H](Nc1ncnc2[nH]cnc12)c1cc2cccc(F)c2c(=O)n1-c1cccc(F)c1 [US20250170122, Compound 331]
IC50 [2]: < 100 nM

C[C@H](Nc1ncnc2[nH]cnc12)c1cc2cccc(F)c2c(=O)n1-c1ccc(F)cc1 [US20250170122, Compound 332]
IC50 [1]: < 100 nM

Cc1ccccc1-n1c(Cn2nc(-c3cn[nH]c3)c3c(N)ncnc32)cc2cccc(Cl)c2c1=O [US20250170122, Compound 336]
IC50 [1]: < 100 nM
IC50 [2]: < 100 nM

Nc1ncnc2c1c(-c1cn[nH]c1)nn2Cc1cc2cccc(Cl)c2c(=O)n1-c1ccccc1F [US20250170122, Compound 337]
IC50 [2]: < 100 nM

Nc1ncnc2c1c(-c1cn[nH]c1)nn2Cc1cc2cccc(Cl)c2c(=O)n1-c1ccccc1 [US20250170122, Compound 338]
IC50 [1]: < 100 nM
IC50 [2]: < 100 nM

Nc1ncnc2c1c(-c1cn[nH]c1)nn2Cc1cc2cccc(Cl)c2c(=O)n1-c1cccc(F)c1 [US20250170122, Compound 339]
IC50 [2]: < 100 nM

C[C@H](Nc1ncnc2ccccc12)c1cc2cccc(Cl)c2c(=O)n1-c1ccccc1 [US20250170122, Compound 342]
IC50 [1]: < 100 nM

C[C@H](Nc1ncnc2sccc12)c1cc2cccc(Cl)c2c(=O)n1-c1ccccc1 [US20250170122, Compound 343]
IC50 [1]: < 100 nM
IC50 [2]: < 100 nM

C[C@H](Nc1ncnc2ccsc12)c1cc2cccc(Cl)c2c(=O)n1-c1ccccc1 [US20250170122, Compound 344]
IC50 [1]: < 100 nM
IC50 [2]: < 100 nM

C[C@H](Nc1nc(N)ncc1C(F)(F)F)c1cc2cccc(Cl)c2c(=O)n1-c1ccccc1 [US20250170122, Compound 346]
IC50 [1]: < 100 nM
IC50 [2]: < 100 nM

[2H]c1nc2c(N[C@@H](C)c3cc4cccc(Cl)c4c(=O)n3C3CC3)ncnc2[nH]1 [US20250170122, Compound 350]
IC50 [3]: < 1000 nM

Cc1csc2ncnc(N[C@@H](C)c3cc4cccc(Cl)c4c(=O)n3-c3ccccc3)c12 [US20250170122, Compound 352]
IC50 [1]: < 100 nM
IC50 [2]: < 100 nM

CNc1ncc(C(F)(F)F)c(N[C@@H](C)c2cc3cccc(Cl)c3c(=O)n2-c2ccccc2)n1 [US20250170122, Compound 354]
IC50 [1]: < 100 nM
IC50 [2]: < 100 nM

C[C@H](Nc1ncnc2[nH]cnc12)c1cc2ncccc2c(=O)n1-c1ccccc1 [US20250170122, Compound 357]
IC50 [2]: < 100 nM

C[C@H](Nc1nc(N)nc2ccccc12)c1cc2cccc(Cl)c2c(=O)n1-c1ccccc1 [US20250170122, Compound 359]
IC50 [1]: < 100 nM

CC(C)C[C@H](Nc1ncnc2[nH]cnc12)c1cc2cccc(Cl)c2c(=O)n1-c1ccccc1 [US20250170122, Compound 363]
IC50 [2]: < 100 nM

CC(C)[C@H](Nc1ncnc2[nH]cnc12)c1cc2cccc(Cl)c2c(=O)n1-c1ccccc1 [US20250170122, Compound 364]
IC50 [2]: < 100 nM

C[C@H](Nc1ncnc2[nH]cnc12)c1cc2cccc(Cl)c2c(=O)n1-c1cccc(Cl)c1 [US20250170122, Compound 365]
IC50 [1]: < 100 nM
IC50 [2]: < 100 nM

C[C@H](Nc1ncnc2[nH]cnc12)c1cc2cccc(Cl)c2c(=O)n1-c1cccc(C(F)(F)F)c1 [US20250170122, Compound 366]
IC50 [2]: < 100 nM
